Molecular target: Human TASK-1 channels (Homo sapiens (Human), UniProt O14649)
Assay: Activity on the TASK-1 channel in Xenopus oocytes (two-microelectrode voltage clamp)
Format: cell-based
Conditions: not given
Experimental: Human TASK-1 channels were expressed in Xenopus oocytes. For this purpose, oocytes were isolated from Xenopus laevis and defoliculated. Subsequently, TASK-1-encoding RNA synthesized in vitro was injected into oocytes. […] Data were acquired and analyzed using a TEC-10cx amplifier (NPI Electronic, Tamm, Germany) connected to an ITC-16 interface (Instrutech Corp., Long Island, USA) and Pulse software (HEKA Elektronik, Lambrecht, Germany). […] Oocytes were continuously superfused with ND96 buffer containing: NaCl 96 mM, KCl 2 mM, CaCl2 1.8 mM, MgCl2 1 mM, HEPES 5 mM (pH adjusted to 7.4 with NaOH). All experiments were performed at room temperature.
Test substances were consecutively added to the bath solution at rising concentrations. […] IC50 values were obtained by fitting the data to the general dose-response equation.

Chain of Human TASK-1 channels (O14649 whole entry): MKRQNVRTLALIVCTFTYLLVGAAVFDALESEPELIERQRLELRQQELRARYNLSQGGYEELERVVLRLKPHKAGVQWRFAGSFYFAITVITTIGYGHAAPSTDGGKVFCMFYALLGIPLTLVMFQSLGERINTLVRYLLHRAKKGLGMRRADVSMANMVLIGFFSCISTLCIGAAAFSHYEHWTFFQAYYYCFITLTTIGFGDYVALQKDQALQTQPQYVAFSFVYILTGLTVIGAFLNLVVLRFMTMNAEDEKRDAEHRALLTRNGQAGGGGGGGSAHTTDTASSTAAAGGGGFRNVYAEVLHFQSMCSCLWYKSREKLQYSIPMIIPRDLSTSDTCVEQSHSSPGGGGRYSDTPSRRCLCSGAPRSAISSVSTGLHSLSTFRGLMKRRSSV

| SMILES | inhibition at 5 µM |
| --- | --- |
| CC(C)(C)OCC(=O)N1CCc2c(c(-c3cccc(C#N)c3)nn2Cc2ccc(F)cc2F)C1 [Example 8d, 3-[5-(2-tert-Butoxy-acetyl)-1-(2,4-difluoro-benzyl)-4,5,6,7-tetrahydro-1H-pyrazolo[4,3-c]pyridin-3-yl]-benzonitrile] | 75% |
| COCC(=O)N1CCc2c(c(-c3cccc(C#N)c3)nn2Cc2ccc(F)cc2F)C1 [Example 8n, 3-[1-(2,4-Difluoro-benzyl)-5-(2-methoxy-acetyl)-4,5,6,7-tetrahydro-1H-pyrazolo[4,3-c]pyridin-3-yl]-benzonitrile] | 80% |

Same assay, conditions: human TASK-1 expressed in Xenopus oocytes, currents during pulses to 40 mV, room temperature

| IC50 | SMILES |
| --- | --- |
| 47 nM | N#Cc1cccc(-c2nn(Cc3ccc(F)cc3F)c3c2CN(C(=O)C2CC2)CC3)c1 [Example 8c, 3-[5-Cyclopropanecarbonyl-1-(2,4-difluoro-benzyl)-4,5,6,7-tetrahydro-1H-pyrazolo[4,3-c]pyridin-3-yl]-benzonitrile] |
| 1620 nM | CS(=O)(=O)c1cccc(C(=O)N2CCc3c(c(-c4cccc(C#N)c4)nn3Cc3ccc(F)cc3F)C2)c1 [Example 8e, 3-[1-(2,4-Difluoro-benzyl)-5-(3-methanesulfonyl-benzoyl)-4,5,6,7-tetrahydro-1H-pyrazolo[4,3-c]pyridin-3-yl]-benzonitrile] |
| 1280 nM | O=C(c1ccc(F)cc1)N1CCc2c(c(-c3ccc(F)cc3)nn2Cc2ccccc2)C1 [Example 8f, [1-Benzyl-3-(4-fluoro-phenyl)-1,4,6,7-tetrahydro-pyrazolo[4,3-c]pyridin-5-yl]-(4-fluoro-phenyl)-methanone] |
| 3260 nM | COc1ccc(C(=O)N2CCc3c(c(-c4ccc(F)cc4)nn3Cc3ccccc3)C2)cc1 [Example 8g, [1-Benzyl-3-(4-fluoro-phenyl)-1,4,6,7-tetrahydro-pyrazolo[4,3-c]pyridin-5-yl]-(4-methoxy-phenyl)-methanone] |
| 2400 nM | O=C(c1ccccc1)N1CCc2c(c(-c3ccc(F)cc3)nn2Cc2ccccc2)C1 [Example 8h, [1-Benzyl-3-(4-fluoro-phenyl)-1,4,6,7-tetrahydro-pyrazolo[4,3-c]pyridin-5-yl]-phenyl-methanone] |
| 64 nM | N#Cc1cccc(-c2nn(Cc3ccc(F)cc3F)c3c2CN(C(=O)C2CCC2)CC3)c1 [Example 8i, 3-[5-Cyclobutane-carbonyl-1-(2,4-difluoro-benzyl)-4,5,6,7-tetrahydro-1H-pyrazolo[4,3-c]pyridin-3-yl]-benzonitrile] |
| 722 nM | N#Cc1cccc(-c2nn(Cc3ccc(F)cc3F)c3c2CN(C(=O)C2CCCC2)CC3)c1 [Example 8j, 3-[5-Cyclopentane-carbonyl-1-(2,4-difluoro-benzyl)-4,5,6,7-tetrahydro-1H-pyrazolo[4,3-c]pyridin-3-yl]-benzonitrile] |
| 906 nM | CS(=O)(=O)c1ccc(C(=O)N2CCc3c(c(-c4cccc(C#N)c4)nn3Cc3ccc(F)cc3F)C2)cc1 [Example 8k, 3-[1-(2,4-Difluoro-benzyl)-5-(4-methanesulfonyl-benzoyl)-4,5,6,7-tetrahydro-1H-pyrazolo[4,3-c]pyridin-3-yl]-benzonitrile] |
| 585 nM | N#Cc1cccc(-c2nn(Cc3ccc(F)cc3F)c3c2CN(C(=O)C2CCOCC2)CC3)c1 [Example 8l, 3-[1-(2,4-Difluoro-benzyl)-5-(tetra-hydro-pyran-4-carbonyl)-4,5,6,7-tetrahydro-1H-pyrazolo[4,3-c]pyridin-3-yl]-benzonitrile] |
| 890 nM | N#Cc1cccc(-c2nn(Cc3ccc(F)cc3F)c3c2CN(C(=O)C2CCOC2)CC3)c1 (stereo not shown) [Example 8m, 3-[1-(2,4-Difluoro-benzyl)-5-(tetrahydro-furan-3-carbonyl)-4,5,6,7-tetrahydro-1H-pyrazolo[4,3-c]pyridin-3-yl]-benzonitrile] |
| 131 nM | CC(C)(C)C(=O)N1CCc2c(c(-c3cccc(C#N)c3)nn2Cc2ccc(F)cc2F)C1 [Example 8o, 3-[1-(2,4-Difluoro-benzyl)-5-(2,2-dimethyl-propionyl)-4,5,6,7-tetrahydro-1H-pyrazolo[4,3-c]pyridin-3-yl]-benzonitrile] |
